US12622910B2, “Inhibitors of Bruton's tyrosine kinase and methods of their use” (Janssen Pharmaceutica NV, priority 2021, dated 2026)

Columns and labels:
BLK = molecular target: T1, BLK (Homo sapiens, UniProt P51451); test: Eurofins KinaseProfiler/IC50Profiler radiometric kinase activity assay; type: biochemical
T1 construct: purchased Eurofins Scientific
Experimental: (§1) RESULTS AND DISCUSSION—Selectivity—The compound of Formula (III) was evaluated in three selectivity panels to assess the potential for off-target pharmacology (Table 8). […] The kinase off-target profile of The compound of Formula (III) was assessed in a full human wild-type panel using radiometric kinase activity assays (KinaseProfiler™ and IC50Profiler™; Eurofins Scientific) (Table 9; FIG. 23). The compound of Formula (III) inhibited 4/278 kinases >50% at 1 micromolar, identifying BTK and the three other kinases having analogous Cys residues with the potential for covalent inhibition (BMX, TEC, BLK). […]. The cellular kinase selectivity of The compound of Formula (III) was established in native Ramos B cell kinome assays (KiNativ™; ActivX) confirmed BTK as the primary target with inhibition of BLK and TEC inhibition detected (Table 10).

BMX = molecular target: T2, BMX (Homo sapiens, UniProt P51813); test: as above; type: biochemical
T2 construct: purchased Eurofins Scientific
Experimental: as §1

BTK = BTK (Homo sapiens, UniProt Q06187); test: as above; type: biochemical
Experimental: as §1

TEC = molecular target: T3, TEC (Homo sapiens, UniProt P42680); test: as above; type: biochemical
T3 construct: purchased Eurofins Scientific
T3 sequence (P42680 1-631): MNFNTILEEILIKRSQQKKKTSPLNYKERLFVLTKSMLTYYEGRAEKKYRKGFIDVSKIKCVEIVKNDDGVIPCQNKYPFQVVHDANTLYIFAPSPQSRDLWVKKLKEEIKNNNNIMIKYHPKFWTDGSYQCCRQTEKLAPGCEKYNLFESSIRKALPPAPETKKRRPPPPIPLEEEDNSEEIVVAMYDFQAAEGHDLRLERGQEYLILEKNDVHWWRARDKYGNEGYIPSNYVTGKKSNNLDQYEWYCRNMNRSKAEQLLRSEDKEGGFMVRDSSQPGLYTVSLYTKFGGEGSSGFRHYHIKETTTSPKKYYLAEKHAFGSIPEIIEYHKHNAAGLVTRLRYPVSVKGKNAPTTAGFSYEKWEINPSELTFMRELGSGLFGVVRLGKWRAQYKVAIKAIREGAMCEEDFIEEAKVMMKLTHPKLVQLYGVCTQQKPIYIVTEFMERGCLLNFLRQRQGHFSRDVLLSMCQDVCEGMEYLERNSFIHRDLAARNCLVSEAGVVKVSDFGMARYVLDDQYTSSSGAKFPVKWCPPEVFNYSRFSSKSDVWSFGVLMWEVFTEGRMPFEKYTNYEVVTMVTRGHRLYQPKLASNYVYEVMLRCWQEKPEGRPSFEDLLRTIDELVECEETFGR
Experimental: as §1

[1] = Metabolic stability in liver microsomes; type: in vitro ADME, monkey
Experimental: Additional Data on Preclinical PK Profile—Protein binding of the compound of Formula (III) was studied using an equilibrium dialysis method in plasma from human, cynomolgus monkey, beagle dog, Sprague Dawley rat, CD-1 mouse, and guinea pig at 0.25, 2.5, and 25 μM. […] In human and monkey, the plasma protein binding was concentration dependent. […] Free fraction of the compound of Formula (III) in liver microsomes from various species ranged from 75.1% to 87.9% at 0.25 mg/mL and from 58.9% to 86.5% at 1.0 mg/mL (Table 17). […] In hepatocytes, the compound of Formula (III) turnover followed a similar trend, with T1/2 ranging from 75.3 minutes in monkey to 278.1 minutes in human.

CYP1A2 = molecular target: T4, CYP1A2 (Homo sapiens, UniProt P05177); test: CYP inhibition in human liver microsomes; type: in vitro ADME; settings: probe Phenacetin
T4 construct: with specific CYP probe substrates in human liver microsomes; from tissue; host or cells: human liver microsomes
Experimental: (§2) The potential of the compound of Formula (III) to inhibit human CYP450s in vitro was investigated up to test concentrations of 50 μM by incubating the compound of Formula (III) with specific CYP probe substrates in human liver microsomes and measuring probe metabolite formation.

CYP2A6 = molecular target: T5, CYP2A6 (Homo sapiens, UniProt P11509); test: CYP inhibition in human liver microsomes; type: in vitro ADME; settings: probe Coumarin
T5 construct: with specific CYP probe substrates in human liver microsomes; from tissue; host or cells: human liver microsomes
Experimental: as §2

CYP2B6 = molecular target: T6, CYP2B6 (Homo sapiens, UniProt P20813); test: CYP inhibition in human liver microsomes; type: in vitro ADME; settings: probe Bupropion
T6 construct: with specific CYP probe substrates in human liver microsomes; from tissue; host or cells: human liver microsomes
Experimental: as §2

CYP2C19 = molecular target: T7, CYP2C19 (Homo sapiens, UniProt P33261); test: CYP inhibition in human liver microsomes; type: in vitro ADME; settings: probe S-Mephenytoin
T7 construct: with specific CYP probe substrates in human liver microsomes; from tissue; host or cells: human liver microsomes
Experimental: as §2

CYP2C8 = molecular target: T8, CYP2C8 (Homo sapiens, UniProt P10632); test: CYP inhibition in human liver microsomes; type: in vitro ADME; settings: probe Amodiaquine
T8 construct: with specific CYP probe substrates in human liver microsomes; from tissue; host or cells: human liver microsomes
Experimental: as §2

CYP2C9 = molecular target: T9, CYP2C9 (Homo sapiens, UniProt P11712); test: CYP inhibition in human liver microsomes; type: in vitro ADME
T9 construct: with specific CYP probe substrates in human liver microsomes; from tissue; host or cells: human liver microsomes
Experimental: as §2

CYP2D6 = molecular target: T10, CYP2D6 (Homo sapiens, UniProt P10635); test: CYP inhibition in human liver microsomes; type: in vitro ADME; settings: probe Dextromethorphan
T10 construct: with specific CYP probe substrates in human liver microsomes; from tissue; host or cells: human liver microsomes
Experimental: as §2

CYP2E1 = molecular target: T11, CYP2E1 (Homo sapiens, UniProt P05181); test: CYP inhibition in human liver microsomes; type: in vitro ADME; settings: probe Chlorzoxazone
T11 construct: with specific CYP probe substrates in human liver microsomes; from tissue; host or cells: human liver microsomes
Experimental: as §2

CYP3A4 = molecular target: T12, CYP3A4 (Homo sapiens, UniProt P08684); test: CYP inhibition in human liver microsomes; type: in vitro ADME
T12 construct: with specific CYP probe substrates in human liver microsomes; from tissue; host or cells: human liver microsomes
Experimental: as §2

[2] = test system: OCI-LY3 (Myd88/CARD11/A20 mutant); test: Antiproliferative activity, 8 days; type: cell-based, human
Experimental: In Vitro Activity in DLBCL Cell Lines—NFκB signaling regulates the secretion of multiple cytokines, including interleukin (IL)-6 and IL-10. Secretion of IL-6 and -10 by ABC-DLBCL OCI-LY-10 cells was measured using a MesoScale assay. […] To determine the anti-proliferative activity of the compound of formula (III), several ABC-DLBCL cell lines—OCI-LY-3, OCI-LY-10, TMD8, and HBL-1—were treated for 8 days. […] The OCI-LY-3 cell line, which harbors a CARD11 mutation downstream of BTK in the NF-κB signaling pathway, was completely insensitive to the compound of Formula (III) up to 2 μM. In 2 experiments, OCI-LY-3 cells were insensitive to the compound of Formula (III) at all concentrations up to 10 μM.

[3] = 10-point concentration response, read-out: IC50 (IC50 Profiler)

T12 sequence (P08684 whole entry): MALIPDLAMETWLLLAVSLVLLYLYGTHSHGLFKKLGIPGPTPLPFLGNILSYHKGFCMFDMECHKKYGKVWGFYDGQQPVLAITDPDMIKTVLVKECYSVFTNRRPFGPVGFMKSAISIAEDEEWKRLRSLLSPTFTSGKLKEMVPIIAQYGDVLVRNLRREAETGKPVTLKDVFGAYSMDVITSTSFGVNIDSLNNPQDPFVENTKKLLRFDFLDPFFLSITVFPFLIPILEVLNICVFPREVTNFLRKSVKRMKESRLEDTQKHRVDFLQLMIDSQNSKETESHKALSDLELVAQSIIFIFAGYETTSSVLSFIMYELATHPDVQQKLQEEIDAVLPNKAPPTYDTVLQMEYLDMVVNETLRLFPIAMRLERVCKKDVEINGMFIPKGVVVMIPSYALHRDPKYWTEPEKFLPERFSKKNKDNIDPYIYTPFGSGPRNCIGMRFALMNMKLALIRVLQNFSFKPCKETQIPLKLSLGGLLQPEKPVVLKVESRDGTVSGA
T9 sequence (P11712 whole entry): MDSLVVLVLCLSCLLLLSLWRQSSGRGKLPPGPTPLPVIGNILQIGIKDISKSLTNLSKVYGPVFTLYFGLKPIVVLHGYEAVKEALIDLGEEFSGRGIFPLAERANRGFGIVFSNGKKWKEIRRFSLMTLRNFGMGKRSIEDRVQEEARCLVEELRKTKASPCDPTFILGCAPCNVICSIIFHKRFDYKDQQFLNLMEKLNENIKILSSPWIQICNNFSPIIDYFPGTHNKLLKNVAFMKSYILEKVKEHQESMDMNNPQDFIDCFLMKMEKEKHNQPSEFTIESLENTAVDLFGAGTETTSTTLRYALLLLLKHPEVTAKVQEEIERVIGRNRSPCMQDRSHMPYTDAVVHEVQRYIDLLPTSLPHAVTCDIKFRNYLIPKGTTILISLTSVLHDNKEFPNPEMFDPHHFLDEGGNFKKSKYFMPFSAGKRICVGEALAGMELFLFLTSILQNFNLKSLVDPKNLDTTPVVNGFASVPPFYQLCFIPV
T1 sequence (P51451 whole entry): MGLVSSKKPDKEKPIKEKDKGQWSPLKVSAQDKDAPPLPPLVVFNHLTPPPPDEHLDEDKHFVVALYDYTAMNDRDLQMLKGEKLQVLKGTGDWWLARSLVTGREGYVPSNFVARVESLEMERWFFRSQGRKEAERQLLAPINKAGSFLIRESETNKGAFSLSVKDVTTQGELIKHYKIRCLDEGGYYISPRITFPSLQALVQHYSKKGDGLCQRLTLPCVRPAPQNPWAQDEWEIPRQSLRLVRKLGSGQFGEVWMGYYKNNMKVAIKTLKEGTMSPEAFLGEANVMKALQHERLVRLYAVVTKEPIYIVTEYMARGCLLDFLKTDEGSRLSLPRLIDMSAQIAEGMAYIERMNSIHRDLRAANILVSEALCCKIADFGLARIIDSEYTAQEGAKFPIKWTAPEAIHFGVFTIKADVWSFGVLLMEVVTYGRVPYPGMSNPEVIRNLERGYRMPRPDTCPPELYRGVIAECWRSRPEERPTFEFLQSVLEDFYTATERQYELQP
T2 sequence (P51813 whole entry): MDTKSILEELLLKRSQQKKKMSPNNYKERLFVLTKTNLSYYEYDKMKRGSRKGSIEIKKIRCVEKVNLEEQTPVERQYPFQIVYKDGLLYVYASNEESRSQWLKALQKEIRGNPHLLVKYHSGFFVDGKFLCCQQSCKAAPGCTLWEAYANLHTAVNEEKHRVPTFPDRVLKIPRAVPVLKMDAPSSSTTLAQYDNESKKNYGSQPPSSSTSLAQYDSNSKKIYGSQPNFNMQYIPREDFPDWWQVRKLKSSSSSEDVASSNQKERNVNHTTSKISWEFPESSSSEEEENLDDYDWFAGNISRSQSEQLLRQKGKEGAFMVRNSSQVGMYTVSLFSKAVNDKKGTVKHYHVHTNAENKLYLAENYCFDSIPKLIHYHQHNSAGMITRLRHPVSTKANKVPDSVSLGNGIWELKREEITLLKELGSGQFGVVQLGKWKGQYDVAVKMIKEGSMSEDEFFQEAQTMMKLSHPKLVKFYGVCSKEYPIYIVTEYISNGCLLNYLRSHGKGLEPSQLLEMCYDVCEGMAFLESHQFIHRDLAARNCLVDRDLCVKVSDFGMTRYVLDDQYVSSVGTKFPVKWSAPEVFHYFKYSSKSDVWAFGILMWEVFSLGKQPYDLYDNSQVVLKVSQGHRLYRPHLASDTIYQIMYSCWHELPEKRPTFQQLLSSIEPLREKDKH
Chain of BTK (Q06187 whole entry): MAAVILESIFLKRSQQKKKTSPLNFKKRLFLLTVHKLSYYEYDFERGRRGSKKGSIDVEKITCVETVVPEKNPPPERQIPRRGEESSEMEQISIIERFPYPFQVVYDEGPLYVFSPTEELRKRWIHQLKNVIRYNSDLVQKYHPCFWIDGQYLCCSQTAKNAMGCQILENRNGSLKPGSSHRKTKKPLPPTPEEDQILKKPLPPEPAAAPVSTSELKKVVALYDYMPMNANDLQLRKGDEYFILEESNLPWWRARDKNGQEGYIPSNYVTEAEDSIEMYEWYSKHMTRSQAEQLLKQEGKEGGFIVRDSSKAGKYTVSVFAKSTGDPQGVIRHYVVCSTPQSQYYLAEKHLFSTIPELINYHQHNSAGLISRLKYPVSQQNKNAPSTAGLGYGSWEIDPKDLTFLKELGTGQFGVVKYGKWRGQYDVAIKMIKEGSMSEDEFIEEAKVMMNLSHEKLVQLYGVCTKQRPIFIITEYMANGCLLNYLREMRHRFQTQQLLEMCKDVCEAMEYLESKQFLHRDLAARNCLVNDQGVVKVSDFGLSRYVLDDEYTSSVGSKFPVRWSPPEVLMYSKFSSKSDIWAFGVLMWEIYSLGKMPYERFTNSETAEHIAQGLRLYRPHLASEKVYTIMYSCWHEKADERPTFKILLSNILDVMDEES
T4 sequence (P05177 whole entry): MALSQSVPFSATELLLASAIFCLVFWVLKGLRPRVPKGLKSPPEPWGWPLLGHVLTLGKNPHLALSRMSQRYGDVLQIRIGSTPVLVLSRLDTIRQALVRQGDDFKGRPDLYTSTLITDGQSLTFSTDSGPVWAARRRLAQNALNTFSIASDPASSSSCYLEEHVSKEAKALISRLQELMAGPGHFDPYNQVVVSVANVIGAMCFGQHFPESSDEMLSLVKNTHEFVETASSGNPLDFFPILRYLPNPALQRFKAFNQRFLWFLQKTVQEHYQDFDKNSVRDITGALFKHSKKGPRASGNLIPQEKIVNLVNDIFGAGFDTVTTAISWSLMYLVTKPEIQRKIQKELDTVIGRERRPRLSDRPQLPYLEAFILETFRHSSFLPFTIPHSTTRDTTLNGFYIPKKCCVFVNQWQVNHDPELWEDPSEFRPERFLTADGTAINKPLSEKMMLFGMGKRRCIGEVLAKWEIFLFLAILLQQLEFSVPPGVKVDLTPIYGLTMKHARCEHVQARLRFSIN
T8 sequence (P10632 whole entry): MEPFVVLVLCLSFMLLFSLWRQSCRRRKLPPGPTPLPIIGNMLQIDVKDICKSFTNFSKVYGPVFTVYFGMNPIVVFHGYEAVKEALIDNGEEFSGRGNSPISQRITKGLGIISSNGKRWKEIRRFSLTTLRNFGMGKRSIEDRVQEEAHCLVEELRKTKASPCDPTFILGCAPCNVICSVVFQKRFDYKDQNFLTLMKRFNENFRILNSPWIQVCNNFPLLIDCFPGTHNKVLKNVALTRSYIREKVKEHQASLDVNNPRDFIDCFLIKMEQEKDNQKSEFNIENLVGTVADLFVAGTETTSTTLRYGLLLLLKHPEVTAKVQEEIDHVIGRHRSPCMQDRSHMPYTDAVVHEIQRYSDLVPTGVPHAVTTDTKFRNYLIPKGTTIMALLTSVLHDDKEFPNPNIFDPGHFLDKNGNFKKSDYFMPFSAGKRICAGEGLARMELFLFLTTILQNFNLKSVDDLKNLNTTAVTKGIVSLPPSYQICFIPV
T7 sequence (P33261 whole entry): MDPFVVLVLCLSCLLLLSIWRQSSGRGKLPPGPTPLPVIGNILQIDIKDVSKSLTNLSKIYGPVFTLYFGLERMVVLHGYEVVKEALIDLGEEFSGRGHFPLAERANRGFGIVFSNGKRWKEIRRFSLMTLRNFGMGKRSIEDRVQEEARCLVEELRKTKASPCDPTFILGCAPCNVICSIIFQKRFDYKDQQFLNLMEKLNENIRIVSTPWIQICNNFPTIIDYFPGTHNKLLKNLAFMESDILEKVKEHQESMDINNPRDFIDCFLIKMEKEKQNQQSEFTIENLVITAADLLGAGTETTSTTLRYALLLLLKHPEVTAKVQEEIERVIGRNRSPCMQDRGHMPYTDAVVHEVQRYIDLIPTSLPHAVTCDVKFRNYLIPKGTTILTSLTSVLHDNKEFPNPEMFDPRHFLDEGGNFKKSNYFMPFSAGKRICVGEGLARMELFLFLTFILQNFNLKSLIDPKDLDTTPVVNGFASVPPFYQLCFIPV
T6 sequence (P20813 whole entry): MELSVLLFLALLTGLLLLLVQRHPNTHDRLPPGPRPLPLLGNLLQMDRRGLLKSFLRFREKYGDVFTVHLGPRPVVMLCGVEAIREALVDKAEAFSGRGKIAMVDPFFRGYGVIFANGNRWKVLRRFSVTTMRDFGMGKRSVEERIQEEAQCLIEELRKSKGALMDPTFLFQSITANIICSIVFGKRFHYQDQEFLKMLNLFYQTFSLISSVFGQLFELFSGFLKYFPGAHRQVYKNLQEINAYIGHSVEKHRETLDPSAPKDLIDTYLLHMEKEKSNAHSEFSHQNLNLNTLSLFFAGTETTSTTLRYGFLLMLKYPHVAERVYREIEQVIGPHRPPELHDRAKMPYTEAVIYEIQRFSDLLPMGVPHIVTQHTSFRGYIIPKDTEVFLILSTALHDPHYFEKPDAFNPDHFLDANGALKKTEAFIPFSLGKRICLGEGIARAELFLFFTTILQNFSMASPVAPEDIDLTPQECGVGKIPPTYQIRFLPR

`C=CC(=O)N[C@H]1CCC[C@H]1NC(=O)c1sc2nccc3c2c1NC(=O)N3c1cnc(CC(C)C)cc1C` (atropisomer, axis not shown) [compound of Formula (III), N-((1R,2S)-2-Acrylamidocyclopentyl)-5-(S)-(6-isobutyl-4-methylpyridin-3-yl)-4-oxo-4,5-dihydro-3H-1-thia-3,5,8-triazaacenaphthylene-2-carboxamide] gave an inhibition at 1 µM (BLK; 1 μM) of 54%, an IC50 (BLK; [3]) of 3.13 µM and an inhibition at 1 µM (BMX; 1 μM) of 92%. It also gave an IC50 (BMX; [3]) of 0.172 µM, an inhibition at 1 µM (BTK; 1 μM) of 98% and an IC50 (BTK; [3]) of 0.558 µM. For the same molecule, the inhibition at 1 µM (TEC; 1 μM) was 88%, the IC50 (TEC; [3]) was 0.303 µM and the “Extraction Ratio, liver microsomes” value ([1]; Monkey) was 0.65. The microsomal CLint ([1]; monkey, liver microsomes) was 61 µL/min/mg, the half-life ([1]; monkey, liver microsomes, read-out: T1/2, liver microsomes) was 11.4 min and the IC50 (CYP1A2) was > 50 µM. For the same molecule, the IC50 (CYP2A6) was > 50 µM, the IC50 (CYP2B6) was > 50 µM and the IC50 (CYP2C19) was > 50 µM. For the same molecule, the IC50 (CYP2C8) was 16 µM, the IC50 (CYP2C9; probe Diclofenac) was 3 µM and the IC50 (CYP2C9; probe Tolbutamide) was 5.3 µM. For the same molecule, the IC50 (CYP2D6) was 26 µM, the IC50 (CYP2E1) was > 50 µM and the IC50 (CYP3A4; probe Midazolam) was 25 µM. For the same molecule, the IC50 (CYP3A4; probe Nifedipine) was > 50 µM, the IC50 (CYP3A4; probe Testosterone) was 40 µM and the “sensitivity at all concentrations up to 10 μM” value ([2]; 2 experiments) was “insensitive”. The IC50 ([2]; Homo sapiens, OCI-Ly3, 192 h, 8 days, n = 4) was > 2 µM.
